Laboratory results as given in PubChem BioAssay (NCI).
Several values for one entry are separate records, joined by “and”; a condition that tells them apart may be missing. Equal entries are not always repeated.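 A five-concentration, 48-hour dose response in 96-well plates underlies each endpoint, interpolated linearly between surrounding concentrations. GI50: concentration for 50% inhibition of growth. TGI is the concentration that stops growth completely.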

Key:
Assay in all cases: NCI tumour cell line growth inhibition, 48 h
[1] = test system: NCI/ADR-RES ovarian
[2] = test system: SR leukemia
[3] = test system: SNB-19 CNS
[4] = test system: BT-549 breast
[5] = test system: HS 578T breast
[6] = test system: CCRF-CEM leukemia
[7] = test system: MDA-MB-435
[8] = test system: IGROV1 ovarian
[9] = test system: HCC-2998 colon
[10] = test system: MDA-MB-231 breast

Compound	TGI [1]	TGI [2] [µM]	TGI [3] [µM]	TGI [4] [µM]	TGI [5]	TGI [6] [µM]	TGI [7] [µM]	TGI [8] [µM]	TGI [9] [µM]	TGI [10] [µM]	GI50 [1]	GI50 [3]	GI50 [5]	GI50 [6]	GI50 [7]	GI50 [10]	GI50 [8]	GI50 [4] [µM]	GI50 [9] [µM]	GI50 [2] [µM]
O=c1oc2ccc3ccccc3c2cc1-c1nc(-c2ccc([N+](=O)[O-])cc2)n[nH]1	> 100 µM	> 100	> 100	79.8	45.6 µM	> 100	> 100	51.8	> 100											
CC(=O)c1cc2c(s1)C(=O)c1ccsc1C2=O	2.59 µM		1.02	0.356	0.561 µM	1.3	0.226	3.4	3.17											
CCOC(CN(C)C(=O)Nc1ccc(Cl)c(Cl)c1)OCC	> 10 µM	> 10	> 10		> 10 µM	> 10	> 10	> 10	> 10	> 10										
CSCCC(NC(=O)Cc1ccc(C(=O)c2ccccc2)cc1)C(=O)N1CCN(CCCCN2c3ccccc3Sc3cc(N=[N+]=[N-])ccc32)CC1 (stereo not drawn)				> 100		> 100		> 100	> 100	> 100										
CC1=NNC(=O)C1C1CC(c2c[nH]c3ccccc23)=NN(c2ccccc2)C1=O (stereo not drawn)	> 100 µM		> 100	> 100	> 100 µM	72.6	> 100	> 100		> 100										
CC[C@@]1(O)C(=O)OCc2c1cc1n(c2=O)Cc2cc3c(CN(C)C)c(O)ccc3nc2-1	3.22 µM and 19.7 µM and 4.78 µM				96.6 µM and 12.2 µM and 39.6 µM						0.0737 µM and 0.355 µM and 0.105 µM	< 0.0131 µM and 0.026 µM	1.27 µM and 5.8 µM and 1.88 µM	< 0.01 µM and 0.0032 µM	0.0713 µM and 0.108 µM and 0.0243 µM	0.847 µM and 0.393 µM and 3.22 µM	0.231 µM and 0.116 µM and 0.392 µM			
Cc1cc(O)c2c(c1)C(C1OC(CO)C(O)C(O)C1O)c1cc(O)cc(O)c1C2=O (stereo not drawn)	> 100 µM	> 100	> 100	> 100		> 100	> 100	> 100	> 100	> 100										
CCCCC(O)(c1ccccc1)C(O)(c1ccccc1)c1c(F)c(F)c(F)c(F)c1F (stereo not drawn)	49.1 µM	76.7	> 100	> 100		88.7	> 100	> 100	31	34.9										
C=C1C2C[C@@H]3O[C@H]4C[C@H]5O[C@@]6(C[C@@H]7O[C@]8(C[C@H](C)[C@@H]9O[C@@H]%10CC(C=O)O[C@@H]%10C[C@@H]9O8)C[C@H](C)[C@@H]7O6)C[C@H]5O[C@H]4[C@H](C)[C@H]3OC(=O)C[C@H]3CC[C@@H]4OC5[C@H]6O[C@]7(CC[C@H]8CC(=C)[C@H](CC[C@@H](C[C@H]1C)O2)O8)CC6O[C@@H]5[C@@H](O7)[C@H]4O3 (stereo partly drawn)		> 1	> 1	< 0.0001	< 0.0001 µM		< 0.0001	> 1	> 1	> 0.218										
O=c1ccn(Cc2ccccc2CCl)c(=O)[nH]1	44.4 µM	73.4	> 100		91.2 µM	> 100	96.5	55.3	59											
COC(=O)CN=C1NC(=S)N(Cc2ccc(OC)cc2)C12CCCC2	> 100 µM	> 100	> 100	> 100		> 100	> 100		> 100	> 100										
CCOc1ccc(N2C(=O)NC3(c4ccccc4)N(C)C(=O)N(C)C23c2ccccc2)cc1 (stereo not drawn)	> 100 µM	> 100	> 100	> 100		> 100	> 100	> 100		> 100										
Clc1ccc(C2CC(c3cccc(Nc4ccncc4)c3)=NN2c2ccccc2)cc1 (stereo not drawn)			3.18	3.38		5.41	3.07	3.04	3.06	3.21		1.71 µM		1.94 µM	1.62 µM	1.7 µM	1.56 µM	1.72	1.6	
Cc1cc(N(CCC#N)CCC#N)ccc1/C=C1N=C(/C=C/c2ccccc2)N(c2ccc(S(N)(=O)=O)cc2)C\1=O		> 100	> 100			> 100		> 100												
O=S1(=O)OCCOS(=O)(=O)C1(Cl)Cl		> 100	> 100			> 100		> 100	> 100											
COc1ccc(C2CC(c3ccc(NS(=O)(=O)c4cc([N+](=O)[O-])ccc4C)cc3)=NN2S(=O)(=O)c2cc([N+](=O)[O-])ccc2C)cc1 (stereo not drawn)	> 100 µM	> 100	> 100	> 100		> 100	> 100	> 100	57.9	> 100										
Cc1cn(CC2=NC3CCCCC3N2)c(=O)[nH]c1=O (stereo not drawn)	> 100 µM	> 100	> 100	> 100	> 100 µM	> 100		> 100	> 100	> 100										

Compound	TGI [1]	TGI [2] [µM]	TGI [3] [µM]	TGI [4] [µM]	TGI [5]	TGI [6] [µM]	TGI [7] [µM]	TGI [8] [µM]	TGI [9] [µM]	TGI [10] [µM]	GI50 [1]	GI50 [3]	GI50 [5]	GI50 [6]	GI50 [7]	GI50 [10]	GI50 [8]	GI50 [4] [µM]	GI50 [9] [µM]	GI50 [2] [µM]
CC(NC(=O)C(N)CC(=O)O)C(=O)OC12CC3CC(CC(C3)C1)C2 (stereo not drawn)	> 100 µM	> 100	> 100		> 100 µM	> 100	> 100	> 100	> 100	> 100										
CNCCCn1c2c(c3ccc(Cl)cc3c1=O)C(=O)c1cc(OC)cnc1-2	2.91 µM	1.11	2.26	2.07			2.32			3.54	0.536 µM	0.614 µM			1.07 µM	1.62 µM		0.645		0.143
O=[N+]([O-])c1cnc(N(CCO)CCO)s1	> 100 µM	> 100	> 100			> 100	> 100	> 100	> 100	> 100										
C=C[C@]1(C)CC(=O)C(C(C)C=O)[C@]12C(=O)Oc1cccc(C)c1C2=O (stereo partly drawn)		> 100	24.6	28.4	42.7 µM	17.6	29.3		31.7	31.6										
CCCC(=O)N(C)N=Nc1ccc(C(=O)OCC)cc1		> 100	> 100	> 100	> 100 µM	> 100		> 100	> 100	> 100										
Cc1ccc(C(=O)O)c(/C=C2\Cc3cc(C)cc(C)c3C2=O)c1		> 100	> 100	> 100	> 100 µM	> 100		> 100	> 100	> 100										
COc1ccc(/C=C2\C[C@H]3[C@@H]4CC=C5C[C@@H](OC(C)=O)CC[C@]5(C)[C@H]4CC[C@]3(C)C2=O)cc1OC	> 100 µM	> 100	> 100	> 100	> 100 µM	> 100	> 100	> 100	> 100											
CCOC(=O)NC(Nc1ccc(S(=O)(=O)Nc2ccc(OC)nn2)cc1)(C(F)(F)F)C(F)(F)F	59.9 µM	55.8	> 100		> 100 µM	70.4	35.8	54	> 100	38.1										
COc1ccc2nc3c(C)cc4ccccc4n3c2c1	> 100 µM	> 100	> 100	> 100	79.3 µM	> 100	> 100	> 100	> 100											
Cc1ccc(S(=O)(=O)NN=C2C(C)(C)CC2(C)C)cc1	> 100 µM		> 100		> 100 µM	> 100	> 100	> 100	> 100	> 100										
O=S(=O)(Nc1nccs1)c1ccc([As](=O)(O)O)cc1	> 100 µM		> 100	> 100	> 100 µM	> 100	> 100	> 100		> 100										
CC1OC(OC2C(OC(=O)[C@]34CCC(C)(C)CC3C3=CCC5[C@@]6(C)C[C@H](O)[C@H](OC7OC(COC8OC(CO)C(O)C(O)C8O)C(O)C(O)C7O)[C@@](C)(C(=O)O)C6CC[C@@]5(C)C3(C)CC4)OCC(O)C2O)C(O)C(O)C1OC1OCC(O)C(O)C1O (stereo partly drawn)			> 100			> 100		> 100	> 100											
O=C1C(Cl)=C(N2CCN(CCOCCO)CC2)C(=O)c2ccccc21	25 µM	8.51	> 56.3		39.2 µM	7.27	12.8	28.6	32.1	17.9										
O=C(CSc1nnc(Cc2ccccc2)o1)Nc1ccc(Cl)cc1[N+](=O)[O-]		> 100	31			54.4														
O=[N+]([O-])c1ccc(Cc2nc3cc4ccccc4cc3[nH]2)cc1C(F)(F)F	23.9 µM		39	43	49.9 µM	> 100	21		30.1											
C=CCOC1CC(n2cnc3c(N)ncnc32)OC1CO (stereo not drawn)		> 100	> 100			> 100		> 100	> 100											
